# Measured values as given in patent US20240166603A1, “Method of Treating Cancer With Atpenin A5 Derviatives” (Texas Tech University System, priority 2018, published 2024).
# Read-outs that look alike come from different tables or passages of the source. Marks after values point to notes of the source that are not given here.
# How the values were obtained:
# [1] = molecular target: T1, mitochondrial complex II (CII) (Rattus norvegicus, UniProt P21913+Q641Z9+Q6PCT8); assay: Complex II inhibition assay, isolated rat heart mitochondria; conditions: for CII inhibition activity: 100 nM where stated; for LLE (Ligand-Lipophilicity Efficiency): LLE = pIC50-ClogP; for CII IC50 expressed: conversion of the nM value
# T1 sequence (P21913 31-282): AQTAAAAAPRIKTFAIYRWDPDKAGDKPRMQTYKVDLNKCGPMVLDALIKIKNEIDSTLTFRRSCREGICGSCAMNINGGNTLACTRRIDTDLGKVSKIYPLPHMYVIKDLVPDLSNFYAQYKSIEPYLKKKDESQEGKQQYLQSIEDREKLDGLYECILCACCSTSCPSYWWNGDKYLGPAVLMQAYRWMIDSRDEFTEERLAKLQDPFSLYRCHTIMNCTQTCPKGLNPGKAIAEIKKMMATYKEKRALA
# T1 sequence (Q641Z9 30-169 limits assumed): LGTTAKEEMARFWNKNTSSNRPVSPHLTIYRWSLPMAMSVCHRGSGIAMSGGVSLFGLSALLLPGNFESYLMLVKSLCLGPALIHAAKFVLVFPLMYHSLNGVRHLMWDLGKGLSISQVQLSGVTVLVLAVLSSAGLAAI
# T1 sequence (Q6PCT8 57-159): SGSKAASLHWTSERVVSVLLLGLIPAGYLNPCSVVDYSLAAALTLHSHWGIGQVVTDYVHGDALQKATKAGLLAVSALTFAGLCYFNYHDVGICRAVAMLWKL
# T1 sequence (Q920L2 35-656 partner): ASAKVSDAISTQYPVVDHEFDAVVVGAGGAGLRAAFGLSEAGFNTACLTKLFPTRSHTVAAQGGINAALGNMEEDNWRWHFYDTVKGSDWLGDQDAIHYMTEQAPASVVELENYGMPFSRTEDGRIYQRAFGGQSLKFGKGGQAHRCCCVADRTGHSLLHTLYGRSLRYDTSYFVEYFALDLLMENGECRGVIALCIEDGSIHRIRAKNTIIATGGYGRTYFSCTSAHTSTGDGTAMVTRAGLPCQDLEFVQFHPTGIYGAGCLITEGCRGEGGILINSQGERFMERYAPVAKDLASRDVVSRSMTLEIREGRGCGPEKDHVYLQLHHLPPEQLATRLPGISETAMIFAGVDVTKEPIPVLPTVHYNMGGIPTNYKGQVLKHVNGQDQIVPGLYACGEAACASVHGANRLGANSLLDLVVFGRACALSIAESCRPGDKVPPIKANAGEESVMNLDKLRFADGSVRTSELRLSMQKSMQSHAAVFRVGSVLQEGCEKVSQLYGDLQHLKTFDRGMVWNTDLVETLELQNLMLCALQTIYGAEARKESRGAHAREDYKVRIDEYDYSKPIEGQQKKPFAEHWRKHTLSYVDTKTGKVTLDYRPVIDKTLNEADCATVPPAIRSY
# [2] = tested on: PC3 prostate cancer cells under hypoxia; assay: Cell death under hypoxia, microfluidic chip, Annexin V and Sytox Green; conditions: for cell death: 10 μM, hypoxia
# [3] = molecular target: Complex I (NADH ubiquinone-oxidoreductase) (Mus musculus, UniProt P03888+Q91WD5+Q9DC70); assay: Complex I inhibition assay, mouse cardiac mitochondria; conditions: for Selectivity Ratio (CII:CI): Table 3
# [4] = tested on: CII; conditions: cited from earlier work
# [5] = molecular target: bovine CII (Bos taurus, UniProt P35720+Q3T189+Q95123); conditions: literature [27]; cited from earlier work
# bovine CII, sequence (Q3T189 29-280): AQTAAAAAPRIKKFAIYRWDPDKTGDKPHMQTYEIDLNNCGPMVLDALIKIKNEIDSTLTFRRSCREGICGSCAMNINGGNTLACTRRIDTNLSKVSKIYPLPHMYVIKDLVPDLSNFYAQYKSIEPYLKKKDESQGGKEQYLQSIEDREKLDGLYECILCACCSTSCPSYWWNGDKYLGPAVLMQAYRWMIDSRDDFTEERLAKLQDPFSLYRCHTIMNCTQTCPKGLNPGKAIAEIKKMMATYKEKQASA
# bovine CII, sequence (P35720 30-169): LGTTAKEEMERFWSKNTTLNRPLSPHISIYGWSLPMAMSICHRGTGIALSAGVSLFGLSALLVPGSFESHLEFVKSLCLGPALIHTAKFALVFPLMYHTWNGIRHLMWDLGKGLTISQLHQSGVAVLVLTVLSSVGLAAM
# bovine CII, sequence (Q95123 56-158): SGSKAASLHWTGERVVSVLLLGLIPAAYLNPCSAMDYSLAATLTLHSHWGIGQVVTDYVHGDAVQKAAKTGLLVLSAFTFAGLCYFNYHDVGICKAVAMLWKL
# bovine CII, sequence (P31039 44-665 partner): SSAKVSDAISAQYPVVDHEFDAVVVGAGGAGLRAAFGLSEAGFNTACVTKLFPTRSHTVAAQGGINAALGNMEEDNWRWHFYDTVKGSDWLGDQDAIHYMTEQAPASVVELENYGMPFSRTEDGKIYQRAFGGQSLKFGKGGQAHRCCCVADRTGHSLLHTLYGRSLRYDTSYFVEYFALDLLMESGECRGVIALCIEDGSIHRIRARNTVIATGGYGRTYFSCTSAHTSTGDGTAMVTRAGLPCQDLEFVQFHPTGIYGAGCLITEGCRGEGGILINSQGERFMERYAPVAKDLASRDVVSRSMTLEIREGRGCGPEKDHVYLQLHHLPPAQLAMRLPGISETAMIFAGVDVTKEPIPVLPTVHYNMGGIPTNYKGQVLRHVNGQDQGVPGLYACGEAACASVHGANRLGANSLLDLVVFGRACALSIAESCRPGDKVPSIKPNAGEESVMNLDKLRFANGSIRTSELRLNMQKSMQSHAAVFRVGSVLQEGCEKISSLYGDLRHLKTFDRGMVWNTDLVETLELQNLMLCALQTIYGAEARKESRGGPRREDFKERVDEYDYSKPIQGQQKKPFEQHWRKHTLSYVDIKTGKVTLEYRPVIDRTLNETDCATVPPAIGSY
# [6] = tested on: DU-145 prostate cancer cells; assay: Cytotoxicity MTS assay, DU-145; conditions: for IC50: Homo sapiens, DU-145, 48 h, read-out: DU-145 IC50
# [7] = tested on: 22Rv1 prostate cancer cells; assay: Cytotoxicity MTS assay, 22Rv1; conditions: for IC50: Homo sapiens, 22Rv1, 48 h, read-out: 22Rv1 IC50; for 22Rv1 IC50: MTS, 48 hours unless otherwise noted; for increase in efficacy relative to Enzalutamide, inhibition of cancer growth in vitro: cell line not given
# [8] = tested on: HEK293 cells; assay: Cytotoxicity MTS assay, HEK293; conditions: for selectivity for prostate cancer cells over HEK293: 16c: DU-145 and 22Rv1, 16k: 22Rv1; for IC50: Homo sapiens, HEK293, 48 h, read-out: HEK293 IC50
# [9] = tested on: WPMY-1 prostate stromal cells; assay: Cytotoxicity, WPMY-1 prostate stromal cells; format: cell-based; conditions: Homo sapiens
# [10] = molecular target: T1, mitochondrial complex II (CII)
# [11] = tested on: PC3 prostate cancer cells; assay: Cytotoxicity MTS assay, PC3; conditions: Homo sapiens, 48 h, read-out: PC3 IC50
# [12] = tested on: LNCaP cells; assay: Potentiation of Enzalutamide in LNCaP cells (FIG. 9); format: cell-based
# [13] = tested on: 3T3 cells; assay: Cytotoxicity, 3T3 mouse embryonic fibroblast cells; format: cell-based; conditions: NIH3T3
# [14] = tested on: 22Rv1 cells; assay: Metabolic parameters, Seahorse XF Extracellular Flux Analyzer; format: cell-based, human; conditions: 48 hour incubation
# Procedure: Next, the inventors determined the effect of complex II inhibition by the developed inhibitors on mitochondrial metabolic processes. The effect of 16c on electron transport parameters of 22Rv1 cells after 48 hour incubation was studied using a Seahorse XF Extracellular Flux Analyzer.
# Assessment of Metabolic Parameters. Changes in oxygen consumption rate were measured using a XF24 Extracellular Flux Analyzer (Seahorse Bioscience, Billerica, MA). 22Rv1 cells were plated in XF24-well plates (40,000 cells/well) and allowed to adapt overnight. Treatments were performed with 16c at concentrations of 1, 10, 20, 30, 50 and 100 μg/mL and incubated for 48 hours. Mito Stress test was performed using oligomycin (10 μM), FCCP (5 μM) and Rotenone/Antimycin A (5 μM) based on the manufacturer's recommended protocol.
# [15] = in vivo; conditions: 1 mg/kg
# [16] = Table 5, SDH1 and SDH2, percent relative to control
# [17] = read-out: CII IC50, rat heart CII
# [18] = read-out: CII IC50, rat heart mitochondria, mean value of four experiments
smiles,measurement,setting,value
"CCCCCC(O)c1c(O)nc(OC)c(OC)c1O (racemic) [Compound 18, (rac)-3-(1-hydroxyhexyl)-5,6-dimethoxypyridine-2,4-diol]",inhibition of CII at 100 nM concentration,[1],0%
same,CII inhibition activity,[1],no CII inhibition activity
same,cytotoxic effect under hypoxia,[2]; up to 10 μM,no cytotoxic effect
"CCCCCC(O)c1cnc(OC)c(OC)c1O (racemic) [Compound 19, (rac)-5-(1-hydroxyhexyl)-2,3-dimethoxypyridin-4-ol]",inhibition of CII at 100 nM concentration,[1],0%
same,CII inhibition activity,[1],inactive compound
"COc1[nH]c(=O)c(C(=O)[C@@H](C)C[C@H](C)[C@@H](Cl)CCl)c(O)c1OC [Atpenin A5, atpenin A5]",Selectivity Ratio (CII:CI),[3],>3030
same,IC50,[3]; read-out: Complex I IC50,> 10000 nM
same,LLE (Ligand-Lipophilicity Efficiency),[1],5.36
same,IC50,[1]; [17],3.3 nM
same,IC50,[1]; [18],3.3 nM
same,IC50,"[1]; read-out: Complex II IC50, Table 3",3.3 nM
same,IC50,"[4]; literature [20, 23]",3.6 to 10 nM
"COc1nc(O)c(C(=O)c2ccco2)c(O)c1OC [Compound 16a, (2,4-dihydroxy-5,6-dimethoxypyridin-3-yl)(furan-2-yl)methanone]",inhibition of CII at 100 nM concentration,[1],0%^e
same,CII inhibition activity,[1],abrogates CII inhibition activity
"CCCCC(=O)c1c(O)nc(OC)c(OC)c1O [Compound 16b, 1-(2,4-dihydroxy-5,6-dimethoxypyridin-3-yl)pentan-1-one]",LLE (Ligand-Lipophilicity Efficiency),[1],5.37
same,IC50,[1]; [17],345 nM
same,IC50,[1]; [18],346 nM
same,IC50,[5],96 nM
"CCCCCC(=O)c1c(O)nc(OC)c(OC)c1O [Compound 16c, 1-(2,4-dihydroxy-5,6-dimethoxypyridin-3-yl)hexan-1-one]",Selectivity Ratio (CII:CI),[3],>156
same,IC50,[6],12 µg/mL
same,IC50,[7],11 µg/mL
same,22Rv1 IC50,[7],11 µg/mL
same,"increase in efficacy relative to Enzalutamide, inhibition of cancer growth in vitro",[7],10 fold
same,selectivity for prostate cancer cells over HEK293,[8],7.4 fold
same,IC50,[8],81 µg/mL
same,CII IC50 expressed,[1],0.01723 µg/mL
same,IC50,[9],18.4 µg/mL
same,LLE (Ligand-Lipophilicity Efficiency),[10],5.62
same,IC50,[11],38 µg/mL
same,effect on Enzalutamide (ENZA) in LNCaP cells,[12],potentiates Enzalutamide
same,cell death,[2],20%
same,IC50,[13],31.8 µg/mL
same,ATP production,[14],inhibition of ATP production
same,basal respiration,[14],reducing basal respiration
same,maximal respiration,[14],reduction of maximal respiration
same,oxygen consumption rate,[14],substantially reduced in a dose-dependent manner
same,AUC,[15],19.6 ng·h/mL
same,Vd,[15],89.5 L/kg
same,half-life,[15],103 min
same,AUC(0-inf),"[15]; AUCinf,obs",8.3 ng·h/mL
same,AUC(0-inf),"[15]; AUCinf,pred",8.32 ng·h/mL
same,Tmax,[15],22.8 min
same,"AUCinf,obs",[15]; female,23.61 ng·h/mL
same,"AUCinf,pred",[15]; female,23.63 ng·h/mL
same,t1/2λz,[15]; female,104 min
same,AUC(0-inf),"[15]; female, AUCinf,obs",36 ng·h/mL
same,AUC(0-inf),"[15]; female, AUCinf,pred",36 ng·h/mL
same,Cmax,[15]; female,140 ng/mL
same,Tmax,[15]; female,15 min
same,Vssobs,[15]; male,134.64772 L/kg
same,Vsspred,[15]; male,129.16994 L/kg
same,t1/2λz,[15]; male,103 min
same,AUC(0-inf),"[15]; male, AUCinf,obs",10.7 ng·h/mL
same,AUC(0-inf),"[15]; male, AUCinf,pred",10.6 ng·h/mL
same,Cmax,[15]; male,23.9 ng/mL
same,Tmax,[15]; male,30 min
"COc1nc(O)c(C(=O)CCCCOCc2ccccc2)c(O)c1OC [Compound 16d, 5-(benzyloxy)-1-(2,4-dihydroxy-5,6-dimethoxypyridin-3-yl)pentan-1-one]",LLE (Ligand-Lipophilicity Efficiency),[1],3.41
same,IC50,[1]; [18],281 nM
"COc1nc(O)c(C(=O)CCCCO)c(O)c1OC [Compound 16e, 1-(2,4-dihydroxy-5,6-dimethoxypyridin-3-yl)-5-hydroxypentan-1-one]",LLE (Ligand-Lipophilicity Efficiency),[1],6.90
same,IC50,[1]; [18],3730 nM
"CCCCCCC(=O)c1c(O)nc(OC)c(OC)c1O [Compound 16f, 1-(2,4-dihydroxy-5,6-dimethoxypyridin-3-yl)heptan-1-one]",LLE (Ligand-Lipophilicity Efficiency),[1],4.57
same,IC50,[1]; [18],282 nM
same,IC50,[5],20 nM
"CCCCCCCC(=O)c1c(O)nc(OC)c(OC)c1O [Compound 16g, 1-(2,4-dihydroxy-5,6-dimethoxypyridin-3-yl)octan-1-one]",LLE (Ligand-Lipophilicity Efficiency),[1],4.89
same,IC50,[1]; [18],49.1 nM
"CCCCCCCCC(=O)c1c(O)nc(OC)c(OC)c1O [Compound 16h, 1-(2,4-dihydroxy-5,6-dimethoxypyridin-3-yl)nonan-1-one]",LLE (Ligand-Lipophilicity Efficiency),[1],4.93
same,IC50,[1]; [18],15.7 nM
"CCCCCCCCCCC(=O)c1c(O)nc(OC)c(OC)c1O [Compound 16j, 1-(2,4-dihydroxy-5,6-dimethoxypyridin-3-yl)undecan-1-one]",LLE (Ligand-Lipophilicity Efficiency),[1],4.32
same,IC50,[1]; [17],8.6 nM
"CCCCCCCCCCCCC(=O)c1c(O)nc(OC)c(OC)c1O [Compound 16k, 1-(2,4-dihydroxy-5,6-dimethoxypyridin-3-yl)tridecan-1-one]",IC50,[3],> 10000 nM
same,Selectivity Ratio (CII:CI),[3],>3030
same,IC50,[3]; read-out: Complex I IC50,> 10000 nM
same,IC50,[7],2 µg/mL
same,22Rv1 IC50,[7],2 µg/mL
same,"increase in efficacy relative to Enzalutamide, inhibition of cancer growth in vitro",[7],10 fold
same,selectivity for prostate cancer cells over HEK293,[8],17.5 fold
same,IC50,[8],35 µg/mL
same,LLE (Ligand-Lipophilicity Efficiency),[1],3.76
same,CII IC50 expressed,[1],0.00121 µg/mL
same,IC50,[9],10.7 µg/mL
"CCCCCC(O)c1c(OCOC)nc(OC)c(OC)c1OCOC (stereo not shown) [Compound 17, 1-(5,6-dimethoxy-2,4-bis(methoxymethoxy)pyridin-3-yl)hexan-1-ol]",inhibition of CII at 100 nM concentration,[1],0%
"CCCCCC(=O)c1cnc(OC)c(OC)c1O [Compound 20, 1-(4-hydroxy-5,6-dimethoxypyridin-3-yl)hexan-1-one]",inhibition of CII at 100 nM concentration,[1],0%
same,CII inhibition activity,[1],no activity at 100 nM concentration
"CCCCCC(OC)c1cnc(OC)c(OC)c1O (stereo not shown) [Compound 24, 2,3-dimethoxy-5-(1-methoxyhexyl)pyridin-4-ol]",IC50,[6],> 30 µg/mL
same,growth inhibition of DU-145 cells,[6]; up to 30 μg/mL,no growth inhibition effect
same,inhibition of CII at 100 nM concentration,[1],0%
same,CII inhibition activity,[1],no activity to inhibit CII at 100 nM
"CC1=NS(=O)(=O)c2cc(Cl)ccc2N1 [Diazoxide, diazoxide, reference compound]",LLE (Ligand-Lipophilicity Efficiency),[1],1.85
same,IC50,[4]; literature,32000 nM
"COc1cc([C@@H]2c3cc4c(cc3[C@@H](O[C@@H]3O[C@@H]5CO[C@@H](C)O[C@H]5[C@H](O)[C@H]3O)[C@H]3COC(=O)[C@H]23)OCO4)cc(OC)c1O [Etoposide, etoposide, reference compound]",cell death,[2],7%
O=C(O)CC(=O)O [Malonate],IC50,[4]; literature,40000 nM
CCCCC(=O)c1c(O)nc(OC)c(OC)c1O [SDH1],value at 100 nM (Control 100%),[16],65.17%
same,value at 1 uM (Control 100%),[16],35.13%
COc1nc(O)c(C(=O)CCCC[P+](c2ccccc2)(c2ccccc2)c2ccccc2)c(O)c1OC [SDH2],value at 100 nM (Control 100%),[16],61.64%
same,value at 1 uM (Control 100%),[16],43.53%
"O=C(CC(=O)C(F)(F)F)c1cccs1 [TFFA, Thenoyltrifluoroacetone]",IC50,[4]; literature,30000 nM
"Cc1c(C)c2c(c(C)c1OC(=O)CCC(=O)O)CC[C@@](C)(CCC[C@H](C)CCC[C@H](C)CCCC(C)C)O2 [α-TOS, α-Tocopheryl succinate]",IC50,[4]; literature,42000 nM
